{"source": "patent US20030203404A1", "about": "“Bioluminescence resonance energy transfer( bret) system with broad spectral resolution between donor and acceptor emission wavelengths and its use” (priority 1999, published 2003)", "key": {"[1]": {"biological_target": "V2 receptor (Homo sapiens, UniProt P30518)", "conditions": "saturating dose, V2-Rluc + β-arrestin2-GFP, FIG. 22", "method": "The Rluc (BDP) was fused to the C-terminus of the GPCR and the GFP (FAM) was fused to the C-terminus of β-arrestin. Therefore, shortly after ligand binding (5-30 minutes) the BRET ratio should increase due to binding of β-arrestin to the GPCR, which brings the GFP in proximity to Rluc.\nHEK293 cell line were transiently transfected using the DNA constructs and LipofectAMINE™ 2000 (BRL/Gibco) in 100 mm dishes as described in the manufacturer's protocol. […] Bioluminescent reactions were analysed using the BRETCount with appropriate filters.\nTransfected cells were added (50 000 cells (in BRET buffer) per well) to the wells in white 96-well plates (Optiplate, Packard Instrument). […] In the other half, BRET buffer, alone, was added. Cells were then incubated for 10-20 minutes at room temperature before adding the coel400a. The analysis was performed at 25° C., integration time 2 sec per wavelength in luminescence mode. The filters used were: for Rluc emission 410DF80 (from Omega); for GFP D515/50M (from Chroma). Coel400a, at a working concentration of 40 μM (final 5 μM), was added to each well to start the bioluminescent reaction. The final reaction volume was 50 μl. Assays were done in quadruplicate.\nFor all fusion constructs, a 6 amino acid linker was inserted, between the Rluc or GFP and the receptor (β2, β3 or V2) or β-arrestin2. […]"}, "[2]": {"biological_target": "V2-R (Homo sapiens, UniProt P30518)", "conditions": "AVP 50 nM, 20 minutes", "method": "BRET assays: HEK293 cell line were transiently co-transfected using the donor and acceptor fusion construct DNAs and LipofectAMINE 2000 (Life Technologies) in 100 mm dishes as described in the manufacturer's protocol. For the transfections, a DNA ratio of 4 μg:46 μg (donor fusion construct: acceptor fusion construct) was used. The donor fusion constructs were the V2-R:Rluc (h) fusion constructs and the acceptor fusion construct was either the pcDNA3.1hyg/GFP1:β-arrestin2 or the pcDNA3.1hyg/β-arrestin2:GFP1. […] Fifty thousand transfected cells per well were added to white 96-well plates (Optiplate, Packard Instrument Company). […] Cells were then incubated for 20 minutes at room temperature in a total volume of 37.5 μl. After the incubation period, 12.5 μl of DeepBlueC at 20 μM (also called Coel400a) was added in each well (final concentration of 5 μM). Final assay volume was 50 μl. Donor and acceptor light outputs were quantified with the Fusion microtiterplate analyzer (Packard Instrument Company) using the following instrument setting:\nRead length: 1 sec per well per filter.\nResults represent the mean+/−SEM of quadruplicate wells. […] In all cases, background levels (wells with only DBC in PBS+) were subtracted."}, "[3]": {"assay": "Coelenterazine 400a stock solution stability (luminescence with CHO cells expressing Rluc, BRETCount)", "type": "physicochemical", "description": "Coelenterazine stability: Three different stock solutions of coelenterazine 400a (dissolved in anhydrous ethanol), prepared at different times, were tested using the BRETCount. CHO cells were transiently transfected with pcDNA3.1-Rluc only. Forty-eight hours later, 50 000 cells in complete BRET buffer were distributed in wells (96-well white Optiplate). Coelenterazine 400a from the various stocks were then added to start the bioluminescent reaction. […] A reduction of 22% is observed for the older stock (made Feb. 19, 1999) compared to a stock freshly made (Aug. 6, 1999). […].\nFIG. 9 represents the same bioluminescent reactions as in FIG. 8 but at t=5 min after addition of the coelenterazines. In this case no significant difference was observed between the various coelenterazine stocks.\nCoel400a stored for a longer period of time (6 months), does show a loss of potential but it remains acceptable and workable for the BRET system."}, "[4]": {"system": "HeLa cells transfected with the GFP1:Caspase-3:Rluc sensor", "assay": "BRET apoptosis sensor assay", "type": "cell-based", "conditions": "staurosporine 1 μM, 5 hours", "description": "PGFP1:caspase-3:Rluc DNAs and the original plasmid pGFP1::Rluc (without the caspase-3 site) were transfected into HeLa cell using LipofectAMINE (BRL/Gibco-Life technologies) in 100 mm dishes and 8 μg of plasmid DNA as described in the manufacturer's protocol. Twenty-four hours post-transfection transfected cells were harvested and distributed into 96-well microtiterplate (white Optiplate from Packard) at a density of 30 000 cells per well. […] Cells were incubated for 5 hours at 37° C. After this period, 50 μl of BRET buffer (PBS Ca^2+/Mg^2++glucose without aprotinin) and 50 μl of DeepBlueC (20 μM) were added to start the bioluminescence reaction. Total assay volume was 200 μl. Light emissions were detected using the BRETCount (read length of 1 sec. for each filter, SPC mode, temperature 25° C.)."}}, "note": "Like-named read-outs stand apart in the source and are kept apart here."}
{"compound": "Arg^8-vasopressin [AVP]", "values": [{"measurement": "BRET ratio in the presence of the agonist", "setting": "[1]", "value": "increased"}, {"measurement": "BRET signal in presence of AVP", "setting": "[2]; V2-R:Rluc + GFP1:β-arrestin2, 10 min after DeepBlueC", "value": 0.129}, {"measurement": "BRET signal in presence of AVP", "setting": "[2]; V2-R:Rluc + β-arrestin2:GFP1, 10 min after DeepBlueC", "value": 0.087}]}
{"compound": "O=c1c(Cc2ccccc2)nc2c(Cc3ccccc3)[nH]c(-c3ccccc3)cn1-2", "note": "[Coelenterazine 400a, phenylcoelenterazine]", "values": [{"measurement": "reduction of luminescent signal immediately after addition of the substrate", "setting": "[3]; stock in anhydrous ethanol made Feb. 19, 1999 compared to stock freshly made (Aug. 6, 1999)", "value": 22, "unit": "%"}, {"measurement": "luminescence reduction immediately after addition of the substrate", "setting": "[3]; stock in anhydrous ethanol made Jul. 22, 1999 compared to stock freshly made (Aug. 6, 1999)", "value": "did not demonstrate significant luminescence reduction"}]}
{"compound": "CN[C@@H]1C[C@H]2O[C@@](C)([C@@H]1OC)n1c3ccccc3c3c4c(c5c6ccccc6n2c5c31)C(=O)NC4", "note": "[staurosporine]", "values": [{"measurement": "BRET ratio change (decrease)", "setting": "[4]; cells transfected with pGFP1:caspase-3:Rluc, time zero", "value": 0.72, "unit": "unit"}, {"measurement": "change in BRET ratio", "setting": "[4]; cells transfected with pGFP::Rluc (without the caspase-3 site)", "value": "No change"}]}
